The record followed here is patent publication US20240059682A1, “THYROID HORMONE RECEPTOR BETA AGONIST COMPOUNDS” (Terns Pharmaceuticals, Inc., priority 2021, published 2024).

The target in the experiment is THR-β/RXR-α (Homo sapiens (Human), UniProt P10828). The experiment is described as follows: THR/RXR heterodimer assay (THR-β/RXR-α). The format is biochemical. Particulars: RXR heterodimer assay; normalized to T3 activity.
THR-β/RXR-α, sequence (P10828 202-461): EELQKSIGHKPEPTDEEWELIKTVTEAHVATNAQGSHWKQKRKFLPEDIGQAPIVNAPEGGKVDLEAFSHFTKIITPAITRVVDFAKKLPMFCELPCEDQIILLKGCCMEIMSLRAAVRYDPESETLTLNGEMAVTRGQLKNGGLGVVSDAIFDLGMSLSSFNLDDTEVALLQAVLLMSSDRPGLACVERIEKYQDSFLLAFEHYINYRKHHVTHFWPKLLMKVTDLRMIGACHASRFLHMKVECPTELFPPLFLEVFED
THR-β/RXR-α, sequence (P19793 225-462 partner): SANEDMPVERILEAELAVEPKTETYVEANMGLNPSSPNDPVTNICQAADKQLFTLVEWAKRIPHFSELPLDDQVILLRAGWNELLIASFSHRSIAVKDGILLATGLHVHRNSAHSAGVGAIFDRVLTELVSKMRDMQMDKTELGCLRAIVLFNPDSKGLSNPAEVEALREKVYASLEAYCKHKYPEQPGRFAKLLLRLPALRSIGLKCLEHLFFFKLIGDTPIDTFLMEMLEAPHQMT
THR-β/RXR-α, sequence (Q15596 679-703 partner): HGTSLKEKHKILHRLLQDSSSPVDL
In turn, `O=C(Nc1cc(Cl)c(Oc2ccc3[nH]c(=O)n(C4CC4)c3c2)c(Cl)c1)c1noc(=O)[nH]1` [Example 1, N-(3,5-dichloro-4-((3-cyclopropyl-2-oxo-2,3-dihydro-1H-benzo[d]imidazol-5-yl)oxy)phenyl)-5-oxo-4,5-dihydro-1,2,4-oxadiazole-3-carboxamide] displayed a THRß-Selectivity of 5.1.

In turn, `COc1nc2ccc(Oc3c(Cl)cc(-n4nc(C#N)c(=O)[nH]c4=O)cc3Cl)cc2n1C1CC1` [Example 2, 2-(3,5-dichloro-4-((1-cyclopropyl-2-methoxy-1H-benzo[d]imidazol-6-yl)oxy)phenyl)-3,5-dioxo-2,3,4,5-tetrahydro-1,2,4-triazine-6-carbonitrile] showed a THRß-Selectivity of 16.9.

Turning to `COc1nc2ccc(Oc3c(Cl)cc(NC(=O)c4noc(=O)[nH]4)cc3Cl)cc2n1C` [Example 3, N-(3,5-dichloro-4-((2-methoxy-1-methyl-1H-benzo[d]imidazol-6-yl)oxy)phenyl)-5-oxo-4,5-dihydro-1,2,4-oxadiazole-3-carboxamide], the THRß-Selectivity was determined as 9.7.

`CC(C)n1c(=O)[nH]c2ccc(Oc3c(Cl)cc(-n4nc(C#N)c(=O)[nH]c4=O)cc3Cl)cc21` [Example 5, 2-(3,5-dichloro-4-((3-isopropyl-2-oxo-2,3-dihydro-1H-benzo[d]imidazol-5-yl)oxy)phenyl)-3,5-dioxo-2,3,4,5-tetrahydro-1,2,4-triazine-6-carbonitrile]: the THRß-Selectivity turned out to be 5.8.

As for `COc1nc2ccc(Oc3c(Cl)cc(NC(=O)c4noc(=O)[nH]4)cc3Cl)cc2n1C(C)C` [Example 6, N-(3,5-dichloro-4-((1-isopropyl-2-methoxy-1H-benzo[d]imidazol-6-yl)oxy)phenyl)-5-oxo-4,5-dihydro-1,2,4-oxadiazole-3-carboxamide], the THRß-Selectivity was found to be 16.9.

In turn, `COc1nc2ccc(Oc3c(Cl)cc(NC(=O)c4noc(=O)[nH]4)cc3Cl)cc2n1C1CC1` [Example 7, N-(3,5-dichloro-4-((1-cyclopropyl-2-methoxy-1H-benzo[d]imidazol-6-yl)oxy)phenyl)-5-oxo-4,5-dihydro-1,2,4-oxadiazole-3-carboxamide] registered a THRß-Selectivity of 21.2.

For the compound `N#Cc1nn(-c2cc(Cl)c(Oc3ccc4[nH]c(=O)n(C5CC5)c4c3)c(Cl)c2)c(=O)[nH]c1=O` [Example 8, 2-(3,5-dichloro-4-((3-cyclopropyl-2-oxo-2,3-dihydro-1H-benzo[d]imidazol-5-yl)oxy)phenyl)-3,5-dioxo-2,3,4,5-tetrahydro-1,2,4-triazine-6-carbonitrile], the THRß-Selectivity is reported as 7.2.

In the case of `CC(C)(C)n1c(=O)[nH]c2ccc(Oc3c(Cl)cc(NC(=O)c4noc(=O)[nH]4)cc3Cl)cc21` [Example 10, N-(4-((3-(tert-butyl)-2-oxo-2,3-dihydro-1H-benzo[d]imidazol-5-yl)oxy)-3,5-dichlorophenyl)-5-oxo-4,5-dihydro-1,2,4-oxadiazole-3-carboxamide], the THRß-Selectivity was determined as 7.7.

Regarding `COc1nc2ccc(Oc3c(Cl)cc(NC(=O)c4noc(=O)[nH]4)cc3Cl)cc2n1C1(C)CC1` [Example 11, N-(3,5-dichloro-4-((2-methoxy-1-(1-methylcyclopropyl)-1H-benzo[d]imidazol-6-yl)oxy)phenyl)-5-oxo-4,5-dihydro-1,2,4-oxadiazole-3-carboxamide], the THRß-Selectivity is 17.7.

`CC1(n2c(=O)[nH]c3ccc(Oc4c(Cl)cc(NC(=O)c5noc(=O)[nH]5)cc4Cl)cc32)CC1` [Example 13, N-(3,5-dichloro-4-((3-(1-methylcyclopropyl)-2-oxo-2,3-dihydro-1H-benzo[d]imidazol-5-yl)oxy)phenyl)-5-oxo-4,5-dihydro-1,2,4-oxadiazole-3-carboxamide] came in with a THRß-Selectivity of 11.0.

On to `COc1nc2ccc(Oc3c(Cl)cc(-n4nc(C#N)c(=O)[nH]c4=O)cc3Cl)cc2n1C(C)(C)C` [Example 15, 2-(4-((1-(tert-butyl)-2-methoxy-1H-benzo[d]imidazol-6-yl)oxy)-3,5-dichlorophenyl)-3,5-dioxo-2,3,4,5-tetrahydro-1,2,4-triazine-6-carbonitrile], for which the THRß-Selectivity turned out to be 10.3.
